Experimental data published in ChEMBL document CHEMBL6134792, “Discovery of selective LATS inhibitors via scaffold hopping: enhancing drug-likeness and kinase selectivity for potential applications in regenerative medicine” (RSC Med Chem, 2024).

Test: Clearance in male mouse at 20 mg/kg, po or 5 mg/kg, iv by LC-MS/MS analysis
Format: ADME, organism-based
Settings: in vivo

CL: 28.3 mL/min/kg
Structure (SMILES): O=C(/N=c1\sccn1Cc1ccccc1)c1n[nH]c2ncccc12
